What was measured:
Format in all cases: cell-based
[1] = Cytotoxicity against mouse Hepa1c1c7 cells assessed as reduction in cell viability by MTT assay; conditions: Hepa-1c1c7
[2] = Cytotoxicity against mouse Hepa1c1c7 cells assessed as reduction in cell viability at 2.5 uM by MTT assay
[3] = Cytotoxicity against mouse Hepa1c1c7 cells assessed as reduction in cell viability at 0.125 uM by MTT assay

Structure (SMILES) | IC50 [1] [µM] | Activity [2] | Activity [3]
COC1=CC(=O)[C@@H]2O[C@@H]2[C@@H]1O | > 50 | – | –
C=C[C@@]1(C)CC(=O)C2=C(CC[C@H]3C(C)(C)CCC[C@]23C)[C@H]1O | > 50 | – | –
C=C[C@@]1(C)CCC2=C(C(=O)C(O)=C3C(C)(C)CCC[C@]23C(=O)O[C@H]2C(=O)C=C(OC)[C@@H](O)[C@H]2O)[C@H]1O | 45.3 | Non-Toxic | –
COC1=CC(=O)[C@H](Cl)[C@H](O)[C@@H]1O | > 50 | – | –
C=C[C@]1(C)C=C2C(=O)[C@@]3(O)OC(=O)[C@@]4(CCCC(C)(C)[C@H]34)[C@@]2(O)CC1 [SPHAEROPSIDIN A] | 2.1 | – | Non-Toxic
C=C[C@]1(C)C=C2[C@@H](O)[C@@]3(O)OC(=O)[C@@]4(CCCC(C)(C)[C@H]34)[C@@]2(O)CC1 [SPHAEROPSIDIN B] | > 50 | – | –
C[S+]([O-])CCCCN=C=S (centres undefined) [SULFORAPHANE] | 15.7 | – | –
